Measured values taken from paper PMC8184855, “A small molecule inhibitor of Nox2 and Nox4 improves contractile function after ischemia–reperfusion in the mouse heart” (Scientific Reports, 2021).

Target: T1, Nox4 (Homo sapiens, UniProt Q9NPH5)
T1 sequence (Q9NPH5 1-578): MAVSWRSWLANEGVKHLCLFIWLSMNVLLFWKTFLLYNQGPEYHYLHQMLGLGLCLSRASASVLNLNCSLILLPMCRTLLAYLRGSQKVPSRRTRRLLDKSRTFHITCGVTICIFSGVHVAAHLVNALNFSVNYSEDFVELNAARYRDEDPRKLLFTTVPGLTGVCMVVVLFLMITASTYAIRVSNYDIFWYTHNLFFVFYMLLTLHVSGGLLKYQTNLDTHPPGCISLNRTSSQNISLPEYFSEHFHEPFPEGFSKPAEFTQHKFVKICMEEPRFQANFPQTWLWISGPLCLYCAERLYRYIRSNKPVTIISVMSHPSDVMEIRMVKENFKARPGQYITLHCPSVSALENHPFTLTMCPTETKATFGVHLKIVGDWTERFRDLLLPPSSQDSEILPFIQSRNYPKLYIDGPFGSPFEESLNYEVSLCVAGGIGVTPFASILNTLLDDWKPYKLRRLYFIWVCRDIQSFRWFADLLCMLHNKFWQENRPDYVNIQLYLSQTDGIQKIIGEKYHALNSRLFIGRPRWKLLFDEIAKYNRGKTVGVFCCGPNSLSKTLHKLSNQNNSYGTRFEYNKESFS
Test: Amplex Red H2O2 assay in CJ HEK […] cells overexpressing Nox4 (found by screen in T-Rex-293 with inducible Nox4); H2O2 counter-screen and DPPH redox control
Assay type: cell-based

Compound: COc1cccc(N2CCN(Cc3nc(N)nc(Nc4ccc(C)c(C)c4)n3)CC2)c1 [GLX481304]
- IC50: 1.25 µM
